Assay results taken from US12630529B2, “GCN2 modulator compounds” (ALESTA THERAPEUTICS BV, priority 2020, dated 2026).
pIC50: −log10 of the molar value.

Legend:
GCN2 [1] = biological target: T1, GCN2 (Mus musculus, UniProt Q9QZ05); assay: GCN2 inhibition cell-based assay (P-GCN2 Western blot in Neuro 2a cells); conditions: amino acid deprived media (DMEM lacking L-cysteine and methionine), 3 hours
T1 construct: endogenous in cells; host or cells: Neuro 2a (N2a)
Method: Neuro 2a cells (N2a) were maintained at 37° C. and 5% CO2 in DMEM/F12 medium (Fisher Scientific) supplemented with 10% fetal bovine serum and 1% penicillin-streptomycin (complete medium). 300,000 cells/well were seeded in flat bottom 6 well plates 48 hours before treatment with the compounds.
Testing compounds were prepared at different concentrations ranging from 10 μM to 0.1 nM on DMEM medium lacking L-cysteine and methionine (DMEM-CM) (Gibco) and supplemented with 1% penicillin-streptomycin. Complete medium was used as control of non-stressed condition. After 48 hours, the medium was removed from each well and 2 mL per well of each treatment was added. Cells were treated for 3 hours at 37° C. and 5% CO2.
After the incubation time, each well was washed with sterile 1×PBS and then 100 μL of ice-cold lysis buffer supplemented with phosphatase and protease inhibitors was added. Lysates were transferred to 1.5 mL tubes and sonicated for 3 min, and total protein amounts were quantified using BCA assay (e.g., BCA Protein Assay Kit; Pierce) according to manufacturer instructions. Equal amount of proteins was loaded on SDS-PAGE gels for electrophoresis and then transferred onto 0.2 µm filter pore PVDF membranes.
Membranes were then blocked in blocking buffer containing 3% BSA/0.1% Tween/1×Tris-buffered saline (TBS) for 1 hour and then incubated overnight at 4° C. with agitation with anti-pGCN2 primary antibody (Abcam ab-75836), diluted 1:1,000 in blocking buffer. […] (Sigma Aldrich) was used as a loading control.
Membranes were then incubated with the corresponding secondary antibody to detect immune-reactive bands using enhanced chemiluminescence (e.g., ECL Western Blotting Substrate Pierce).
Images were acquired (e.g., using Chemidoc™ equipment) and quantitated by densitometry using ImageJ software. IC50 values were determined from a concentration-response curve using GraphPad prism software.
IC50 values from P-GCN2 inhibition assay after induction with amino acid deprived media in the presence of different concentrations of test compounds are shown in Table 2. For IC50 values: +++ refers to <10 nM of test compound; ++ refers to 10 nM to 100 nM of test compound; + refers to 100 nM to 1,000 nM of test compound and − refers to >1,000 nM of test compound.
Under GCN2-mediated stress conditions, resulting from an amino acid deprived medium, GCN2 is generally phosphorylated. Accordingly, inhibition of GCN2 phosphorylation as a result of the test compound indicates inhibition of the GCN2 pathway.

GCN2 [2] = biological target: GCN2 (Homo sapiens, UniProt Q9P2K8); assay: GCN2 enzyme inhibition assay (Reaction Biology EIF2AK4/GCN2 kinase assay); assay type: biochemical; design: purchased Reaction Biology Corp; conditions: human GCN2 enzyme activity, 10 μM ATP, 20 μM peptide substrate
Sequence of GCN2 (Homo sapiens, UniProt Q9P2K8) (Q9P2K8 whole entry): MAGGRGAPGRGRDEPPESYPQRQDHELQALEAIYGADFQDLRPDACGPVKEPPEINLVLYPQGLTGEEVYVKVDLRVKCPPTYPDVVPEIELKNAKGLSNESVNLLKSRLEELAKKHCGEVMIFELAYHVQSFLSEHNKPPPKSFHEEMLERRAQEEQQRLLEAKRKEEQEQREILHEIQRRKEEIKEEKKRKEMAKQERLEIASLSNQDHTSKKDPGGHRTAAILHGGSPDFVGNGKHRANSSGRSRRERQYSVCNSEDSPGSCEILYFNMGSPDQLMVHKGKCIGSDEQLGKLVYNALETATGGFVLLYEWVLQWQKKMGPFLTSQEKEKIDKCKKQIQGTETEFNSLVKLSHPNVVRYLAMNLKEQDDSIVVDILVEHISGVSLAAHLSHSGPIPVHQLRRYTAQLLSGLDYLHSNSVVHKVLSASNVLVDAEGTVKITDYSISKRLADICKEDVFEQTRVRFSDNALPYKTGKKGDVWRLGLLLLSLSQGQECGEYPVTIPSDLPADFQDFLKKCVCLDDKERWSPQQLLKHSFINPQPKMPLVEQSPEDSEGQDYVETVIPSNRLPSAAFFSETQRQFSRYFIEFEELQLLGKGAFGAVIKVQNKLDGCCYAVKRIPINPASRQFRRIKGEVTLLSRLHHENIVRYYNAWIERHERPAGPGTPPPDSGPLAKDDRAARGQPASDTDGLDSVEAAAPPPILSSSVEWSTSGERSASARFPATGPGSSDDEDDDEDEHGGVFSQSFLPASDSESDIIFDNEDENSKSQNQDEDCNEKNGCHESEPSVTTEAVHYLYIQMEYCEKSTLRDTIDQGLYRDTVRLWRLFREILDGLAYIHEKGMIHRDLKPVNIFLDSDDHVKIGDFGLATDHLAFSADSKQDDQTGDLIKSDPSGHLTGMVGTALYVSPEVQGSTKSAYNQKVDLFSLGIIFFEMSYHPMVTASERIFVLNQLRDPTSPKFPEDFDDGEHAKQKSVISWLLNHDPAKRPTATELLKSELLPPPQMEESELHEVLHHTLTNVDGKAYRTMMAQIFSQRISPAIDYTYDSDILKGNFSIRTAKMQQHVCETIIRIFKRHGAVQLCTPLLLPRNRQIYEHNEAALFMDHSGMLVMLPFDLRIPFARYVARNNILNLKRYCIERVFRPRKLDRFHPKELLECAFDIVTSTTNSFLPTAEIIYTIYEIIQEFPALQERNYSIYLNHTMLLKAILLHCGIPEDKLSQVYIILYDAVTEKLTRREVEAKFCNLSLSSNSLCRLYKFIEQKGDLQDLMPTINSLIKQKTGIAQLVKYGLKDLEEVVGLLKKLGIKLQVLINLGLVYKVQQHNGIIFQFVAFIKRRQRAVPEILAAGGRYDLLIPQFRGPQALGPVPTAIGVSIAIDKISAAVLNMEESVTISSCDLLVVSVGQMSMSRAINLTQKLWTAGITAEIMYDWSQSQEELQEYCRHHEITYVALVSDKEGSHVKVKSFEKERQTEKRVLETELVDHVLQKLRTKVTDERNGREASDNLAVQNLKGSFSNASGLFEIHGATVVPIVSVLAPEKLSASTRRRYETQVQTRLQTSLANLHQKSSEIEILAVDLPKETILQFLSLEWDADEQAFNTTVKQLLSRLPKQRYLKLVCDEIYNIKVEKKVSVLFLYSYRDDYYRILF
Method: In order to validate the above results, human GCN2 enzyme activity was measured in Reaction Biology Corp (EIF2AK4/GCN2 kinase assay). Compounds were tested in 5-dose IC50 mode for non-active compounds and 10-dose IC50 mode for active compounds with 3-fold serial dilution starting at 30 μM and 0.1 μM respectively. Control compound Staurosporine was tested in 10-dose IC50 mode with 4-fold serial dilution starting at 20 μM. Reactions were carried out at 10 μM ATP using 20 μM peptide substrate [GRSRSRSRSR]. For IC50 values: +++ refers to <10 nM of test compound; ++ refers to 10 nM to 100 nM of test compound; + refers to 100 nM to 1,000 nM of test compound and − refers to >1,000 nM of test compound.

HT29 cells = assay: Growth of tumor spheroids; assay type: cell-based; conditions: 64 μM arginine, up to 120 hours, vs untreated spheroids
Method: The growth of tumor spheroids was evaluated following treatment of cells with Compound 1, Compound 2 and Compound 108. Briefly, HT29 cells were seeded at 5,000 cells/well in ultra-low attachment round bottom 96-well plates, in 100 μL SILAC DMEM Flex media without phenol red, supplemented with 10% fetal bovine serum (FBS), 1 g/L glucose, 2 mM glutamine, 220 μM lysine, and 64 μM arginine. The plates were centrifuged for 10 minutes at 125×g and put in a humidified incubator at 37° C. for 3 days before the onset of the experiment to allow spheroids to form.
Three days after seeding, 10 μM Compound 1, 10 μM Compound 2, 10 μM Compound 108 or 10 μM vehicle control (0.1% DMSO), were added together with 100 nM fluorescent apoptosis stain (e.g., YO-PRO™-1 Iodide; Thermo Fisher) to detect apoptotic cells and Nuclear-ID Red DNA Stain (1:100,000; ENZO Life Sciences) to detect live cells. Plates were placed in a live-cell imaging and analysis platform (e.g., IncuCyte ZOOM®; Essenbio) set up in a humidified incubator at 37° C. and scanned every 4 hours for up 120 hours, at 10× magnification, to determine relative spheroid size and cell death. Experiments were performed in quadruplicate and analyzed using live-cell imaging and analysis software (e.g., IncuCyte ZOOM® 2018A software; Essenbio).

CHOP (DDIT3) reporter = assay: GCN2-induction of CHOP and apoptosis in 3T3 fibroblasts with CHOP (DDIT3) reporter construct; assay type: cell-based, murine; conditions: for induction of CHOP (mCherry): murine 3T3 WT and GCN2 knockout CHOP reporter cells, stress inducer alone
Method: The CHOP construct comprised the […] (UTR) of mouse DDIT3 mRNA fused to a sequence encoding the fluorescent protein mCherry.
Cells were seeded at 5,000 cells per well in flat bottom 96-well plates in 100 μL DMEM low glucose media without phenol red, and supplemented with 10% FBS and 2 mM glutamine. After 24 hours, the exemplary compounds, and either tunicamycin, halofuginone, or histidinol, were added together with 100 nM of fluorescent apoptosis stain (YO-PRO™-1 Iodide; Thermo Fisher) to detect apoptotic cells. Cells were placed in a live-cell imaging and analysis platform (IncuCyte ZOOM®; Essenbio) set up in a humidified incubator at 37° C. and the plates were scanned every 4 hours for up 120 hours, at 10× magnification, to determine cell confluence and cell death. Experiments were performed in duplicate with 3 images collected per well, and analyzed using live-cell imaging and analysis software (IncuCyte ZOOM® 2018A software; Essenbio).

T1 sequence (Q9QZ05 whole entry): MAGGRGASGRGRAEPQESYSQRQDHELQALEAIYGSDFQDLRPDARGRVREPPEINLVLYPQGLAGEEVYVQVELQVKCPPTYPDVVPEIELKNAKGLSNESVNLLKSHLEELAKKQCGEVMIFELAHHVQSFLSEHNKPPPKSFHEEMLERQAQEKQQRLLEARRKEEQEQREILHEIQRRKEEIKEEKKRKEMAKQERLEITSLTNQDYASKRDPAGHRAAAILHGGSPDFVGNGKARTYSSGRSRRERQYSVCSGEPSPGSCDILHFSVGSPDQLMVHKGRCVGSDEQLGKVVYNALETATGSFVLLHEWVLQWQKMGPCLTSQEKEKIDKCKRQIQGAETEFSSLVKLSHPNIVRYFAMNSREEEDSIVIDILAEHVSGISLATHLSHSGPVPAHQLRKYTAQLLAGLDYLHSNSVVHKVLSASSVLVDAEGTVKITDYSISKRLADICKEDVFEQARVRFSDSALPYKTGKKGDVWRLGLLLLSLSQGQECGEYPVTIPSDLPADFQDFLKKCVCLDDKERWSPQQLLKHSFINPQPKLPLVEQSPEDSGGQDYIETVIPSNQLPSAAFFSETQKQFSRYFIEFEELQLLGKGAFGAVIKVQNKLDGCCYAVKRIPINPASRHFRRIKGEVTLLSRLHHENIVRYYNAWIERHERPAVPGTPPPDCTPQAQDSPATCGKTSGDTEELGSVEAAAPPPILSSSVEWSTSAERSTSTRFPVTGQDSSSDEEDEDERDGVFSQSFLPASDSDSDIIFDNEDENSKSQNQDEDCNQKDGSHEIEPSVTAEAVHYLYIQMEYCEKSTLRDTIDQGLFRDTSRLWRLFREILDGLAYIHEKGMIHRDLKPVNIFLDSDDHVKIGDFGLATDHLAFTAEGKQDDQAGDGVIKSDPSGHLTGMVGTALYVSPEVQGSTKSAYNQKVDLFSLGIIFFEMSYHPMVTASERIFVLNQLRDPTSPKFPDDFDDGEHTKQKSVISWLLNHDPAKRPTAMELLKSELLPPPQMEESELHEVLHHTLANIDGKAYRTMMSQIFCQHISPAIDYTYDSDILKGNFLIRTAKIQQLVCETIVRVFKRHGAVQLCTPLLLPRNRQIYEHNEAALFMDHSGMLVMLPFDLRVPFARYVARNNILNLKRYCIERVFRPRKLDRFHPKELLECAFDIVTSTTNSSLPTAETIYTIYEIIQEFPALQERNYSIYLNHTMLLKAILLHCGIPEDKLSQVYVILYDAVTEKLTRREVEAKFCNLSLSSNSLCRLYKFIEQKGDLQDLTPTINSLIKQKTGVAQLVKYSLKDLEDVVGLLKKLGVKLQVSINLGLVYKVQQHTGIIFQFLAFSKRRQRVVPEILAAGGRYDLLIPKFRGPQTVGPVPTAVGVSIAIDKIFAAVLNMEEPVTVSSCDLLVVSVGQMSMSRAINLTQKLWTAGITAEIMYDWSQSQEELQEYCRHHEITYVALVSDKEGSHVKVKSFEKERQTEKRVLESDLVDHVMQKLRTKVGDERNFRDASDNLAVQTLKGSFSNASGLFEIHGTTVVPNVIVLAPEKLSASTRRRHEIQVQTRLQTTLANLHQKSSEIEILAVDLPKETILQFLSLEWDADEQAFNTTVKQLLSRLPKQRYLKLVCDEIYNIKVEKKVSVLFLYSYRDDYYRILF

pIC50 (GCN2 [1])	pIC50 (GCN2 [2])	SMILES	also measured
< 6.00	6.00 to 7.00	COc1ncc(Cl)cc1S(=O)(=O)Nc1ccc(F)c(-c2ccc(-c3cnc(N)nc3)nc2)c1F [Compound 4]	
> 8.00		Nc1ncc2cc(-c3c(F)ccc(NS(=O)(=O)c4cc(Cl)cc(CO)c4Cl)c3F)ccc2n1 [Compound 108]	spheroid size and viability (HT29 cells): relative reduction in spheroid size and viability in a dose-dependent manner; GCN2 activation / GCN2-induced CHOP activation (CHOP (DDIT3) reporter; murine 3T3 CHOP (mCherry) reporter fibroblasts, increasing concentrations, in the presence of halofuginone or histidinol): reduced GCN2 activation; apoptosis induced by halofuginone (CHOP (DDIT3) reporter; murine 3T3 WT cells, co-treatment with halofuginone): effectively inhibited apoptosis; late-stage apoptosis induced by histidinol (CHOP (DDIT3) reporter; murine 3T3 WT cells, co-treatment with histidinol): increased late-stage apoptosis
< 6.00	< 6.00	COc1ncc(Cl)cc1S(=O)(=O)Nc1ccc(F)c(-c2ccc3cnc(N)nc3c2)c1F [Compound 6]	
< 6.00	< 6.00	COc1ncc(Cl)cc1-c1nnc(-c2ccc(F)c(C#Cc3cnc(N)nc3)c2F)o1 [Compound 7]	
< 6.00	< 6.00	Nc1ncc2ccc(-c3c(F)ccc(NS(=O)(=O)c4cc(Cl)ccc4Cl)c3F)cc2n1 [Compound 5]	
		N[C@H](CO)Cc1c[nH]cn1 [histidinol, L-histidinol, reference compound]	induction of CHOP (mCherry) (CHOP (DDIT3) reporter): induction of CHOP (mCherry) could be observed in the WT cells, but not in the GCN2 knockout cells
< 6.00	< 6.00	COc1ncc(Cl)cc1C(=O)Nc1ccc(F)c(C#Cc2cnc(N)nc2)c1F [Compound 3]	
		O=C(CC1NCCCC1O)Cn1cnc2cc(Br)c(Cl)cc2c1=O (centres unmarked) [halofuginone, reference compound]	induction of CHOP (mCherry) (CHOP (DDIT3) reporter): induction of CHOP (mCherry) could be observed in the WT cells, but not in the GCN2 knockout cells
